Results published in publication PMC12069340 (Frontiers in Cellular and Infection Microbiology, 2025).
Structures can show the parent of a compound that is named as a salt. Where two headings read alike, the source gives them in different places.

Assays:
[1] = system: A/PuertoRico/8/1934 (H1N1) virus; test: microbe, parasite or virus in culture; format: cell-based, influenza A virus; conditions: Influenza A virus, H1N1, U-937, 48 h
[2] = system: A/PuertoRico/8/1934 (H1N1) virus; test: microbe, parasite or virus in culture; format: cell-based, influenza A virus
[3] = system: A/Human/Hubei/3/2005 (H3N2); test: microbe, parasite or virus in culture; format: cell-based; conditions: Influenza A virus, H3N2, A549, 48 h, read-out: H3N2 IC50
in vitro [4] = conditions: human
[5] = system: B/Human/Hubei/1/2007 (IBV); test: microbe, parasite or virus in culture; format: cell-based; conditions: Influenza B virus, MDCK, 48 h, read-out: IBV IC50
in vitro [6] = conditions: dog
in vitro [7] = conditions: human, Relative Viability (%)
in vitro [8] = conditions: human; remark: listed apart in the source
in vitro [9] = conditions: human, A549 cells
[10] = Validation screen: cytotoxicity without viral infection; conditions: human
[11] = system: single-stranded RNA (ssRNA) viruses; conditions: cited from earlier work
oral cancer cells = system: oral cancer cells; parameters: method as in Sakakitani et al., 2020; conditions: ref Sakakitani et al., 2020; cited from earlier work
[12] = system: Bovine Liver Catalase (BLC); parameters: method as in Shahraki et al., 2020; conditions: ref Shahraki et al., 2020; cited from earlier work
primary tumor = system: primary tumor; parameters: method as in Sakakitani et al., 2020; conditions: xenograft model; ref Sakakitani et al., 2020; cited from earlier work
[13] = Influenza A virus, H1N1, U-937, 48 h, read-out: NA Inhibition (%)

O=C(c1ccc(OCCCc2cnc[nH]2)cc1)C1CC1 [Ciproxifan]
IC50 [1]: 1400 nM
inhibition at 20 µM ([2]; Influenza A virus, H1N1, U-937, 48 h; read-out: NA Inhibition (%)): 75.2%
IC50 [3]: 14.9 µM
CC50 (in vitro [4]): 425 µM
IC50 [5]: 1800 nM
CC50 at 48 h (in vitro [6]): > 400 µM
viability at 20 µM (in vitro [7]): 131%
CC50 at 48 h (in vitro [8]): 556 µM
CC50 (in vitro [9]): 556 µM
CC50 at 48 h [10]: > 80 µM

CN1CCN(CCCN2c3ccccc3Sc3ccc(Cl)cc32)CC1 [Prochlorperazine dimaleate, Prochlorperazine dimaleate salt]
inhibition at 20 µM [2, 13]: 63.9%
antiviral properties, virus entry [11]: exhibits antiviral properties by disrupting clathrin redistribution
viability at 20 µM (in vitro [7]): 93.5%
CC50 at 48 h ([10]; uninfected U937 cells): 38.4 µM

CC(COc1ccccc1)NC(C)C(O)c1ccc(O)cc1 (stereo not drawn) [Isoxsuprine, Isoxsuprine hydrochloride]
IC50 [1]: 1500 nM
inhibition at 20 µM [2, 13]: 86.5%
mesenchymal cell markers and motility (oral cancer cells): downregulates mesenchymal cell markers and reduces motility
catalase activity [12]: reduce catalase activity
IC50 [3]: 34.3 µM
primary tumor growth (primary tumor): effectively suppressed primary tumor growth
CC50 (in vitro [4]): > 900 µM
IC50 [5]: 3400 nM
CC50 at 48 h (in vitro [6]): > 400 µM
viability at 20 µM (in vitro [7]): 105%
CC50 at 48 h (in vitro [8]): > 900 µM
CC50 (in vitro [9]): 530 µM
CC50 at 48 h [10]: > 80 µM
